Values joined by “and” are separate entries in the source; they are usually repeats but may differ in a detail not shown here. Equal entries are not always repeated.
Experiments:
Assay type in all cases: cell-based
[1] = tested on: L. sinuatum cotyledon explants; test: Induction of embryogenic calli from cotyledon explants; settings: for Callus Description / % Response / Number of Explants responded/cultured: MS medium with 1 mg/l 2,4-D, 0.1 mg/l kinetin; for Callus Description / % Response: 30 days after culture; for % Response: mean of experiments; for Number of Explants responded/cultured: scored 30 days after culture, Exp.1 to 3
Method: (§1) Seeds of perennial statice Limoniurn bellidifolium (Gouan) Durmort.(Statice caspia Willd.) and annual statice Linonium sinuatum (L.) Mill. Cv. Soiree, and other Limonium species were purchased from Park Seed Co. (Greenwood, S.C., U.S.A.). Seeds were surface-sterilized by rinsing in 70% (v/v) ethanol for 30 seconds and in 10% (v/v) commercial bleach for 10 minutes. Following this treatment, they were washed five times in sterile distilled water and germinated under light on half-strength Murashige and Skoog basal medium (MS, Murashige and Skoog, 1962) containing 1.5% (wt./v) sucrose and 0.8% (wt./v) agar (Agar-agar, Sigma, St. Louis, Mo., U.S.A.). The pH was adjusted to 5.8 prior to autoclaving for 5 days to provide the explants.
(§2) Cotyledon and hypocotyl explants were dissected from 5-day old seedlings. The hypocotyls were cut 1 mm below the cotyledonary node and 1 mm above the hypocotyl-root junction to provide 2 mm-long explants. The cotyledons were separated from the cotyledon-petiole junction and halved into 2 to 3 mm long pieces. The explants were cultured, 10 per 100×15 mm Petri plate, on MS medium containing MS mineral salts, B5 vitamins (Gamborg et al. 1968), sucrose (2, 3 or 4% wt./v), 0.1 mg.l^−1 kinetin and 1, 2 or 5 mg.l^−1 2,4-D, pH 5.8. The plates were sealed with parafilm (American National Can, WI) and incubated at 25° C. under 16/8 h (day/night) light regime (PPFD 46 μmol.quanta.m^−2.s^−1, cool white fluorescent lamps). The explants were subcultured every two weeks on the same media.
(§3) Cotyledon explants from L. bellidifolium and L. sinuatum initiated callus within 7-10 days in culture on media containing 1 mg.l^−1 2,4-D and various levels of sucrose. Embryogenic callus was characterized by globular structures, smooth and shiny texture and creamy color. On media containing 1 mg.l^−1 2,4-D and 0.1 mg.l^−1 kinetin, increasing sucrose concentrations increased the induction of well developed embryogenic calli, 4% sucrose being the optimum (see the following Table 1). Some of the cotyledon explants respond with direct somatic embryogenesis without a callus phase. The embryogenic calli produced repetitive globular embryos on the same induction media for both species. Medium containing 4% sucrose was also optimum to induce embryogenic calli from hypocotyl explants (79% response for 28 explants cultured for L. bellidifolium and 86% response for 21 explants cultured for L. sinuatum). On an average, 2-3 somatic embryos developed per explant weekly. At 2% sucrose, friable non-embryogenic callus grew along with less defined embryogenic calli on the same explant.

[2] = tested on: L. bellidifolium cotyledon explants; test: as above; settings: for Callus Description / % Response / Number of Explants responded/cultured: MS medium with 1 mg/l 2,4-D, 0.1 mg/l kinetin; for Callus Description / % Response: 30 days after culture; for % Response: mean of experiments; for Number of Explants responded/cultured: scored 30 days after culture, Exp.1 to 3
Method: as §1, §2, §3

[3] = tested on: somatic embryos from embryogenic calli derived from L. bellidifolium and L. sinuatum cotyledon and hypocotyl explants; test: Maturation and germination of somatic embryos from cultured embryogenic calli; design: key to Germination: − = No response; + slow (21-30 days); ++ medium (15-20 days); ++++- Fast (14 days) with 100% maturation and germination; settings: for somatic embryo morphology: no growth regulators; for Germination / Maturation: MS medium
Method: For maturation, somatic embryos at late-globular, heart and torpedo stages were subcultured on MS media containing 3% or 4% (wt./v) sucrose with or without 0.1 mg.l^−1 kinetin. Calli differentiating globular embryos were transferred to maturation medium, MS supplemented with 3 or 4% sucrose and 0 or 0.1 mg.l^−1 kinetin. Late globular, heart, torpedo and cotyledonary stages differentiated in these media and with faster and higher response on media with 4% sucrose compared to that on 3% sucrose (see Table 2).
Supplementation of this medium with 0.1 mg/l kinetin induced embryo maturation and germination within 10 to 14 days of subculture compared to more than 21 days on media lacking kinetin.

[4] = tested on: L. sinuatum hypocotyl explants; test: Induction of embryogenic calli from hypocotyl explants; settings: medium containing 4% sucrose; 21 explants cultured
Method: as §2
(§4) Cotyledon explants from L. bellidifolium and L. sinuatum initiated callus within 7-10 days in culture on media containing 1 mg.l^−1 2,4-D and various levels of sucrose. Embryogenic callus was characterized by globular structures, smooth and shiny texture and creamy color. On media containing 1 mg.l^−1 2,4-D and 0.1 mg.l^−1 kinetin, increasing sucrose concentrations increased the induction of well developed embryogenic calli, 4% sucrose being the optimum (see the following Table 1). Some of the cotyledon explants respond with direct somatic embryogenesis without a callus phase. […]

[5] = tested on: L. bellidifolium hypocotyl explants; test: as above; settings: medium containing 4% sucrose; 28 explants cultured
Method: as §2, §4

[6] = media containing 1 mg/l 2,4-D and various levels of sucrose

For `O=C(O)COc1ccc(Cl)cc1Cl` [2,4-D, reference compound], the “time to callus initiation in culture” value [1, 6] was 7 to 10 days and the “time to callus initiation in culture” value [2, 6] was 7 to 10 days.
`OC[C@H]1O[C@@](CO)(O[C@H]2O[C@H](CO)[C@@H](O)[C@H](O)[C@H]2O)[C@@H](O)[C@@H]1O` [sucrose] was tested, and the somatic embryo morphology ([3]; 3% sucrose) was “abnormally long roots with poor shoot development”, the Germination ([3]; 3% sucrose, kinetin 0.0 mg/l) was “−” and the Maturation ([3]; 3% sucrose, kinetin 0.0 mg/l) was “+ (+ slow (21-30 days))”. For the same compound, the Germination ([3]; 3% sucrose, kinetin 0.1 mg/l) was “++ (++ medium (15-20 days))”, the Maturation ([3]; 3% sucrose, kinetin 0.1 mg/l) was “++ (++ medium (15-20 days))” and the Germination ([3]; 4% sucrose, kinetin 0.0 mg/l) was “+ (+ slow (21-30 days))”. For the same compound, the Maturation ([3]; 4% sucrose, kinetin 0.0 mg/l) was “++ (++ medium (15-20 days))”, the Germination ([3]; 4% sucrose, kinetin 0.1 mg/l) was “++++ (++++- Fast (14 days) with 100% maturation and germination)” and the Maturation ([3]; 4% sucrose, kinetin 0.1 mg/l) was “++++ (++++- Fast (14 days) with 100% maturation and germination)”. For the same compound, the somatic embryo morphology ([3]; sucrose increased to 4%) was “inhibited this abnormal rooting”, the “response (induction of embryogenic calli)” value [4] was 86% and the “response (induction of embryogenic calli)” value [5] was 79%. For the same compound, the “Callus Description” value ([1]; 2% sucrose) was “W,E,F”, the “% Response” value ([1]; 2% sucrose) was 72% and the “Number of Explants responded/cultured” value ([1]; 2% sucrose) was 12/19 and 38/44 and 13/20. For the same compound, the “Callus Description” value ([1]; 3% sucrose) was “W/G,B(g,t)”, the “% Response” value ([1]; 3% sucrose) was 79% and the “Number of Explants responded/cultured” value ([1]; 3% sucrose) was 50/61 and 49/74 and 61/69. The “Callus Description” value ([1]; 4% sucrose) was “W/G,B(g,h,t)”, the “% Response” value ([1]; 4% sucrose) was 88% and the “Number of Explants responded/cultured” value ([1]; 4% sucrose) was 42/48 and 32/39 and 37/40. The “Callus Description” value ([2]; 2% sucrose) was “W,E,F”, the “% Response” value ([2]; 2% sucrose) was 75% and the “Number of Explants responded/cultured” value ([2]; 2% sucrose) was 15/24 and 23/28 and 53/67. For the same compound, the “Callus Description” value ([2]; 3% sucrose) was “W/G,E(g,t)”, the “% Response” value ([2]; 3% sucrose) was 79% and the “Number of Explants responded/cultured” value ([2]; 3% sucrose) was 46/58 and 53/62 and 48/68. For the same compound, the “Callus Description” value ([2]; 4% sucrose) was “W/G,E(g,h,t)”, the “% Response” value ([2]; 4% sucrose) was 89% and the “Number of Explants responded/cultured” value ([2]; 4% sucrose) was 29/32 and 1/26 and 39/41.

From patent publication US20020199220A1, “Methods to propagate plants via somatic embryogenesis and to transfer genes into ornamental statice and other members of the family plumbaginaceae” (priority 2001, published 2002)
